Test results taken from ChEMBL document CHEMBL5604062, “ASAP - ZIKV NS2B-NS3 protease fluorescence dose response” (2024).
“And” between values parts separate entries of the source, which are not always exact repeats. Identical values can stand only once.

Biological target: Nonstructural protein 3 (Zika virus, UniProt A0A024AXB9)
Assay: Functional biochemical assay to identify treatments for viral infectious disease that targets Zika NS2B-NS3 protease. Utilizing a direct enzyme activity measurement method, reading the fluorescence intensity is used to characterize the relative potency of inhibitors as IC50.
Parameters: species or system PRVABC59

Chain of Nonstructural protein 3 (A0A024AXB9 whole entry): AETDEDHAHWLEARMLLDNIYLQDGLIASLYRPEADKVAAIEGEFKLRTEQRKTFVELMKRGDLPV

Structure (SMILES)	IC50
O=C(Nc1ccc(Cl)cc1C(=O)Nc1cccc(C2CCNCC2)c1)OCc1ccccc1	> 99.5 µM
C[C@H]1CN(C(=O)Cc2ccc(C=O)[nH]2)CCN1C1CCCC1	> 99.5 µM
CCn1ccnc(N2CC[C@H](C(C)(C)C)C2)c1=O	> 99.5 µM
Cc1cc(-c2ccc3[nH]c(C(=O)O)cc3c2)c2cc[nH]c(=O)c2c1	> 99.5 µM
O=C(Nc1ccc2c(c1)COC2)c1cc(Cl)cc2[nH]ncc12	> 99.5 µM
O=C(Nc1ccc2c(c1)C(=O)OC2)c1ccc2c(c1)CNC2	> 25 µM
Cc1cc(C(=O)Nc2cc(-c3cccnc3)ccn2)nn1CCN	> 25 µM
Cn1nc(C(=O)Nc2cccc(CN)c2)cc1C1CC1	> 99.5 µM
CN1CCN(Cc2ccccc2CNC(=O)[C@@H](NC(=O)OCc2ccccc2)c2ccc(OCc3ccccc3)cc2)CC1	> 99.5 µM
CCSc1nnc(SCCn2nc3ccccn3c2=O)s1	> 99.5 µM
CCn1c(=O)c(N2CC[C@]3(CNC(=O)O3)C2)nc2ccccc21	> 99.5 µM
Cc1cc(OCc2ccccc2)ccc1NS(=O)(=O)c1ccc(Cl)cc1C(=O)O	> 99.5 µM
Cc1c(C(=O)Nc2cc([C@H]3CCOC3)ccn2)cc(C2CC2)n1C	0.177 µM and 0.082 µM and 0.137 µM
O=C(O)c1cc2cc(-c3cccc([C@H]4COCCN4)c3)ccc2[nH]1	> 99.5 µM
COc1cc(C(=O)Nc2ccc3c(c2)CNC3)cc2ccoc12	0.917 µM
CCc1cc(C(=O)Nc2ccc3c(c2)CNC3)cc2cn[nH]c12	1.61 µM
Cc1c(C(=O)Nc2ccc3c(c2)CCCC(=O)N3C)cc(C2CC2)n1C	> 25 µM
Cc1nc2cc(Cl)ccc2cc1C(=O)Nc1ccc2c(c1)CNC2	> 25 µM
COc1ccc(S(=O)(=O)Nc2ccc(Cl)cc2C(=O)O)cc1	> 99.5 µM
CCn1c(=O)c(N2CCC[C@@H]2Cc2cccs2)nc2ccccc21	> 99.5 µM
O=C(Nc1ccc2c(c1)CNC2)c1ccnc2[nH]ccc12	21.1 µM
NCc1ccc(C[C@H](NC(=O)OCc2ccccc2)C(=O)Nc2cccc(CN)c2)cc1	33.4 µM

Structure (SMILES)	IC50
NCc1cccc(NC(=O)[C@@H](NC(=O)OCc2ccccc2)c2ccc(-c3ccnc4[nH]ccc34)cc2)c1	> 99.5 µM
O=C(O)c1cc(Cl)ccc1NS(=O)(=O)c1ccc(Oc2ccccc2)cc1	70.7 µM
O=C(Nc1ccc2c(c1)CNC2)c1cc(F)c2[nH]nnc2c1	> 25 µM
COc1cc2c(CN3CCC(c4cscn4)CC3)c[nH]c2cc1Cl	49.6 µM
O=C1Cc2c(cccc2C(=O)NC[C@H]2CCCN(c3nccs3)C2)N1	> 25 µM
CNCc1cc(Cl)cc(C(=O)Nc2cccc(CN)c2)c1	1.42 µM
NCc1cccc(S(=O)(=O)Cc2cc(Cl)cc(NC(=O)OCc3ccccc3)c2)c1	92.3 µM
CC(C)(C)OC(=O)NCc1cc(Br)cc(NC(=O)c2cc(Cl)cc(NC(=O)OCc3ccccc3)c2)c1	> 99.5 µM
Cc1nc(CCCNCc2n[nH]c3ccccc23)cs1	> 99.5 µM
O=C(O)c1sc2cccnc2c1Br	> 99.5 µM
CC(C)(CO)NC(=O)c1cc(Cl)cc(NC(=O)c2cc(Cl)ccc2O)c1	> 99.5 µM
NC[C@H]1C[C@@H](CNC(=O)c2cc(Cl)cc(NC(=O)OCc3ccccc3)c2)CCO1	> 99.5 µM
Cc1ccc(S(=O)(=O)N2Cc3ccccc3C[C@@H](C(=O)Nc3cccc(CN)c3)C2)cc1	43.6 µM
COc1ccc(NS(=O)(=O)c2ccc(Cl)cc2C(=O)O)cc1S(=O)(=O)N1CCCC1	> 99.5 µM
CCn1cc(-c2ccc3nn(C)cc3c2)nc(N2CC[C@@H](CO)C2)c1=O	> 99.5 µM
O=C1Cc2c(cccc2C(=O)N[C@H]2C[C@H](c3ccon3)C2)N1	> 25 µM
NCc1cccc(NC(=O)[C@@H]2CCC[C@H](OC(F)(F)F)C2)c1	> 99.5 µM
NCc1cccc(NC(=O)CN(C(=O)OCc2ccccc2)c2ccc(OCc3ccccc3)cc2)c1	14.5 µM
O=C(NCc1ccco1)c1csc(Br)c1	> 99.5 µM
CCn1c(=O)c(N2CCC[C@@H]2Cn2cncn2)nc2ccccc21	> 99.5 µM
CN(C(=O)c1ccc2c(c1)[C@H](CN)CCC2)C1CCN(CC(F)F)CC1	> 99.5 µM
C[C@@H](O)c1cccc(N2CCC(c3nc(N)ncc3F)CC2)n1	> 99.5 µM

Structure (SMILES)	IC50
O=C(Cc1ccc2ncsc2c1)Nc1ccc2c(c1)CNC2	> 25 µM
O=C(Nc1cc(Cl)cc([C@H]2Nc3ccc(-c4nn[nH]n4)cc3[C@H]3OCCC[C@@H]23)c1)OCc1ccccc1	> 99.5 µM
O=C(Nc1ccc2c(c1)CNC2)c1ccc2ccncc2c1	13.9 µM
N#C[C@H](Nc1ccc2c(c1)CNC2)c1cccc2ncccc12	7.26 µM
Cc1cc(C(=O)Nc2cccc(CN)c2)c2c(C)n[nH]c2n1	> 99.5 µM
C[C@@H]1c2cccnc2CCN1Cc1cccc(CN(C)C)c1	> 99.5 µM
CC1=C(c2cc(F)cc(C(=O)Nc3ccc4c(c3)CNC4)c2)CCCC1	> 25 µM
NCc1cccc(NC(=O)[C@H](NC(=O)Cc2ccccc2)c2ccc(OCc3ccccc3)cc2)c1	28.9 µM and 28.2 µM
N=C(N)NCCc1cccc(B(O)O)c1	> 100 µM
CCc1nc(C)c(C(=O)Nc2cccc(-c3nnn[nH]3)c2)s1	> 99.5 µM
CCn1cc(-c2ccnc(N(C)C)c2)nc(N2CC[C@@H](CO)C2)c1=O	> 99.5 µM
COC(=O)[C@H](C)n1cc2c(C(=O)Nc3ccc4c(c3)CNC4)cc(Cl)cc2n1	0.199 µM
COCCOc1ccc(Cl)cc1C(=O)Nc1ccc2c(c1)CNC2	3.06 µM
O=S(=O)(Nc1ccc(Oc2ccccc2Cl)cc1)c1c[nH]c2ccc(Cl)cc12	> 99.5 µM
CCNC(=O)Nc1cc(Cl)cc(C(=O)Nc2cc(C)cc(CN)c2)c1	0.676 µM
NCc1ccc(Oc2ccc(S(=O)(=O)Nc3ccc(Cl)cc3C(=O)O)cc2)cc1	> 99.5 µM
CC(C)Cn1cc2c(C(=O)Nc3ccc4c(c3)CNC4)cc(Cl)cc2n1	0.269 µM
Cc1[nH]c2ccccc2c1CN1CCC(c2c[nH]c3ncccc23)CC1	5.81 µM
NCc1cccc(NC(=O)C[C@H](NC(=O)OCc2ccccc2)c2ccc(C(F)(F)F)cc2)c1	58.3 µM
Cc1ccc(S(=O)(=O)N2CCC([C@@H](NC(=O)OCc3ccccc3)C(=O)Nc3cccc(CN)c3)CC2)c(C)c1	71.9 µM
CNC(=O)[C@H](Nc1cc(Cl)cc(NC(=O)OCc2ccccc2)c1)c1cccc(-c2nn[nH]n2)c1	> 99.5 µM
C=CC[C@H](Nc1cccc(CN)n1)c1cc(Cl)cc(NC(=O)OCc2ccccc2)c1	25.3 µM

Structure (SMILES)	IC50
c1ccc(C2CCN(Cc3ccc4nccnc4c3)CC2)nc1	> 99.5 µM
O=C(NCc1cc(Cl)ccc1NS(=O)(=O)c1ccc(Oc2ccccc2Cl)cc1)C1CC1	> 99.5 µM
NC[C@H]1C[C@@H](NC(=O)[C@@H](NC(=O)OCc2ccccc2)c2ccc(OCc3ccccc3)cc2)C1	85.2 µM
CC(=O)N1Cc2ccc(NC(=O)c3cc(Cl)cc4[nH]ncc34)cc2C1	> 25 µM
Cc1oc2nc(-c3cc(Cl)cc(NC(=O)OCc4ccccc4)c3)ccc2c1C(=O)O	> 99.5 µM
CCOCC1(c2nc3c(C(=O)Nc4ccc5c(c4)CNC5)cc(Cl)cc3[nH]2)CC1	0.199 µM
CCn1c(=O)c(N2CCC[C@H]2c2noc(C)n2)nc2ccccc21	> 99.5 µM
CCN1CCN(c2ccc(NS(=O)(=O)c3ccc(Cl)cc3C(=O)O)cc2)CC1	> 99.5 µM
CCOc1cccc(-c2cccc(NC(=O)c3cc(C4CC4)n(C)c3C)n2)c1	> 25 µM
NCCCc1ccnc(NC(=O)c2nnc(C3CC3)s2)c1	> 25 µM
Cc1c(C(=O)Nc2cccc([C@H]3CCNC3)c2)cc(C2CC2)n1C	> 99.5 µM
NC[C@]12CC[C@](NC(=O)c3cc(Cl)cc(NC(=O)OCc4ccccc4)c3)(CO1)C2	49.4 µM
CN1C(=O)Cc2cc(C(=O)Nc3ccc4c(c3)CNC4)ccc21	> 25 µM
COc1cc(OC)cc([C@H]2CCN(C(=O)Nc3ccc4c(c3)CNC4)C2)c1	> 25 µM
Cc1cnc([C@H]2CCCN(C(=O)Nc3ccc4c(c3)CNC4)C2)s1	> 25 µM
NCc1cccc(NC(=O)c2cc(N)cc(Cl)c2)c1	39.6 µM
CN(C)CCOc1ccc(Cl)cc1C(=O)Nc1cccc(CN)c1	25.6 µM
O=Cc1ccc(N2CCC(C(=O)NC[C@H](O)c3ccc(O)c(O)c3)CC2)cc1	> 12.7 µM
Fc1cc(CNc2ccc3c(c2)CNC3)c2cc[nH]c2c1	9.31 µM
CCCOc1ccc2[nH]cc(CN3CCC(c4cscn4)CC3)c2c1	> 99.5 µM
NC(=O)c1[nH]c2ccc(Br)cc2c1Cc1ccc(-c2nnn[nH]2)cc1	> 99.5 µM
NCc1ccc2nc(-c3cc(Cl)cc(NC(=O)OCc4ccccc4)c3)c(CCCO)cc2c1	51.9 µM

Structure (SMILES)	IC50
C=CC[C@H]1NCc2cc(NC(=O)c3ccc4c(c3)CC(=O)N4)ccc21	> 25 µM
CN1CCn2nc(NC(=O)[C@@H](NC(=O)OCc3ccccc3)c3ccc(OCc4ccccc4)cc3)cc2C1	> 99.5 µM
C=C(C)c1cc(NC(=O)OCc2ccccc2)cc(C(=O)Nc2cccc(CN)c2)c1	14.8 µM
C[C@@H](C(=O)Nc1cccc(CN)c1)c1ccc(OCc2ccccc2)cc1	> 99.5 µM
CN(c1ncnc(-c2ccsc2C=O)n1)C1CCNCC1	98.4 µM
C[C@H](NC(=O)c1cccc2c1CC(=O)N2)c1cc2cnccc2o1	> 25 µM
CCc1cc(Br)cc2c(Cc3ccc(-c4nnn[nH]4)cc3)c[nH]c12	26.4 µM
Cc1ccc([C@@H](NC(=O)OCc2ccccc2)C(=O)Nc2cccc(CN)c2)cc1C	> 99.5 µM
Cc1c(NC(=O)c2cccc3c2CC(=O)N3)cnn1C1CCOCC1	> 25 µM
NC[C@]1(F)C[C@@H](NC(=O)c2cc(Cl)cc(NC(=O)OCc3ccccc3)c2)C1	68.6 µM
CC(C)[C@@H]1C(=O)O[C@H]1C(=O)O	> 99.5 µM
Cc1c(C(=O)Nc2cc(CN(C)C)ccn2)cc(C2CC2)n1C	> 25 µM
c1ccc2sc(C3CCN(Cc4n[nH]c5c4CCCC5)CC3)nc2c1	> 99.5 µM
O=C(O)c1cc(Cl)ccc1NS(=O)(=O)c1ccc(-c2cscn2)cc1	43.1 µM
O=C1Cc2c(cccc2C(=O)Nc2ccc3c(c2)CNCC3)N1	3.03 µM
C=C(C)c1cccc([C@@H](NC(=O)OCc2ccccc2)C(=O)Nc2cccc(CN)c2)c1	9.65 µM
O=C(Nc1ccc2c(c1)CNC2)c1cc(Br)cc2[nH]c([C@H]3CCCO3)nc12	0.274 µM
NCC1(NC(=O)[C@H](NC(=O)OCc2ccccc2)c2ccc(OCc3ccccc3)cc2)CCCCC1	58.5 µM
NCc1cccc(NC(=O)c2cc(Cl)ccc2NS(=O)(=O)c2ccc(Oc3ccccc3Cl)cc2)c1	> 99.5 µM
